# Experimental data taken from US12286429B2, “5-oxo-1,2,3,5,8,8a-hexahydroindolizine-3-carboxamide derivatives useful as a factor XIa inhibitors” (Janssen Pharmaceutica NV, priority 2021, dated 2025).
# pIC50: −log10 of the molar value.
# How the values were obtained:
# human plasma kallikrein = human plasma kallikrein (Homo sapiens, UniProt P03952); test: Kallikrein inhibition assay utilizing a quenched AMC peptide substrate (FLINT); format: biochemical; details: 11-point, 3-fold serial dilution, top 1 μM; 30 min preincubation; 2 nM kallikrein; 50 μM Z-Gly-Pro-Arg-AMC; kinetic reads over 30 min
# Sequence of human plasma kallikrein (P03952 391-638 limits assumed): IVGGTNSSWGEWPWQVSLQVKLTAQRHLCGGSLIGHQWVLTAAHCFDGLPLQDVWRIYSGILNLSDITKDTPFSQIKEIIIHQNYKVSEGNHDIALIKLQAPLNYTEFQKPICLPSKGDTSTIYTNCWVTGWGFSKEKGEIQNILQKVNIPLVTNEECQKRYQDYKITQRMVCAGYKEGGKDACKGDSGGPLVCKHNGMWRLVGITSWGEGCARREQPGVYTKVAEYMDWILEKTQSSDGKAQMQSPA
# Sequence of human plasma kallikrein (P03952 20-390 partner limits assumed): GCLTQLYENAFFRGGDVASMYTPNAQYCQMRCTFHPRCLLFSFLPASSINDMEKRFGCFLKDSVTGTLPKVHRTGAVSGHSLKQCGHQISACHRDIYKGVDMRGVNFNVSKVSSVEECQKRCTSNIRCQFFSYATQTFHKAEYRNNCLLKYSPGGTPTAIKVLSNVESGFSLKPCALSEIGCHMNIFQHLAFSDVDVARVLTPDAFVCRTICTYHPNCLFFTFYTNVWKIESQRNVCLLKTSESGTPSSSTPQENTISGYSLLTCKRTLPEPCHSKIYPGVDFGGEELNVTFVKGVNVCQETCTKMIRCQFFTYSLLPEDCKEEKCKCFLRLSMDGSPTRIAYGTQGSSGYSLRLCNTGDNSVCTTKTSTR
# Procedure, shortened: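 Human plasma kallikrein (2 nM final) was pre-incubated 30 min at room temperature with compound (11-point 3-fold series, top 1 μM, 2% DMSO) in Tris pH 7.5, NaCl, CaCl2, BSA, CHAPS buffer. Reaction started with 50 μM Z-Gly-Pro-Arg-AMC (KM 40 μM), and fluorescence (340/440 nm) was read kinetically over 30 min. IC50 came from a 4-parameter logistic fit.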
# Factor XIa = Factor XIa (Homo sapiens, UniProt P03951); test: Factor XIa inhibition assay utilizing a fluorophore-quencher pair peptide substrate (FLINT); format: biochemical; details: 11-point, 3-fold serial dilution, top 100 nM; 30 min preincubation; 15 μM 5Fam-KLTRAETV-K5Tamra substrate; kinetic reads over 30 min; read-out: FXIa Inhibition IC50
# Sequence of Factor XIa (P03951 388-625 limits assumed): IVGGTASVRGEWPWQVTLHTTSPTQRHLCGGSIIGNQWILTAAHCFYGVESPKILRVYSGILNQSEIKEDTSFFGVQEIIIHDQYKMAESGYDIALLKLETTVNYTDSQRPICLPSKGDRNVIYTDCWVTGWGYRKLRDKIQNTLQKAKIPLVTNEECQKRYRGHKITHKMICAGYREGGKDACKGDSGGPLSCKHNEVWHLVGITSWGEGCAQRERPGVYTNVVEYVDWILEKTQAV
# Sequence of Factor XIa (P03951 19-387 partner limits assumed): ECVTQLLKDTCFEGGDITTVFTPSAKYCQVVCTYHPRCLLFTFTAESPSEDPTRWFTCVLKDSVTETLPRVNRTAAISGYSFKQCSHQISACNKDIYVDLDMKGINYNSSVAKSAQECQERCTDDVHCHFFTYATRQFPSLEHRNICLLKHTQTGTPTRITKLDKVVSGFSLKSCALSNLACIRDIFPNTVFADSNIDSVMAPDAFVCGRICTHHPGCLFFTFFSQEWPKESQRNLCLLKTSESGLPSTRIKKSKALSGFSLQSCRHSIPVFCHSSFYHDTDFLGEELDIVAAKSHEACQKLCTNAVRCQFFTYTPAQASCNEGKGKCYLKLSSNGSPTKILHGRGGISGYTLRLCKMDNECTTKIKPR
# Procedure, shortened: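 FXIa ([…]) preincubated 30 min with compound (11-point, 3-fold, top 100 nM, 2% DMSO) in Tris pH 7.5, NaCl, CaCl2, BSA, CHAPS; 15 μM 5Fam-KLTRAETV-K5Tamra substrate then added. Fluorescence (485/520 nm) read kinetically over 30 min at room temperature; IC50 by 4-parameter fit.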
Compound,pIC50 (human plasma kallikrein),pIC50 (Factor XIa)
"Cn1nnnc1-c1ccc(NC(=O)[C@@H]2CCC3CC(c4c(-n5cnnn5)ccc(Cl)c4F)=CC(=O)N32)cc1 (mixture of isomers) [ID No. 70, (3S)-7-[3-Chloro-2-fluoro-6-(tetrazol-1-yl)phenyl]-N-[4-(1-methyltetrazol-5-yl)phenyl]-5-oxo-2,3,8,8a-tetrahydro-1H-indolizine-3-carboxamide]",6.36,7.07
"Cn1nncc1-c1ccc(NC(=O)[C@@H]2CCC3CC(c4c(-n5cnnn5)ccc(Cl)c4F)=CC(=O)N32)cc1 (mixture of isomers) [ID No. 71, (3S)-7-[3-Chloro-2-fluoro-6-(tetrazol-1-yl)phenyl]-N-[4-(3-methyltriazol-4-yl)phenyl]-5-oxo-2,3,8,8a-tetrahydro-1H-indolizine-3-carboxamide]",6.81,7.34
"O=C(Nc1ccc(-c2nnn[nH]2)cc1)[C@@H]1CCC2CC(c3c(-n4cnnn4)ccc(Cl)c3F)=CC(=O)N21 (mixture of isomers) [ID No. 72, (3S)-7-[3-Chloro-2-fluoro-6-(tetrazol-1-yl)phenyl]-5-oxo-N-[4-(1H-tetrazol-5-yl)phenyl]-2,3,8,8a-tetrahydro-1H-indolizine-3-carboxamide]",7.69,9.15
"O=C(Nc1ccc(-n2cnnn2)cc1)[C@@H]1CCC2CC(c3c(-n4cnnn4)ccc(Cl)c3F)=CC(=O)N21 (mixture of isomers) [ID No. 73, (3S)-7-[3-Chloro-2-fluoro-6-(tetrazol-1-yl)phenyl]-5-oxo-N-[4-(tetrazol-1-yl)phenyl]-2,3,8,8a-tetrahydro-1H-indolizine-3-carboxamide]",6.81,7.58
"O=C(Nc1ccc(-c2ncc[nH]2)cc1)[C@@H]1CCC2CC(c3c(-n4cnnn4)ccc(Cl)c3F)=CC(=O)N21 (mixture of isomers) [ID No. 74, (3S)-7-[3-Chloro-2-fluoro-6-(tetrazol-1-yl)phenyl]-N-[4-(1H-imidazol-2-yl)phenyl]-5-oxo-2,3,8,8a-tetrahydro-1H-indolizine-3-carboxamide]",7.39,8.70
"O=C(Nc1ccc(-c2nc(=O)o[nH]2)cc1)[C@@H]1CCC2CC(c3c(-n4cnnn4)ccc(Cl)c3F)=CC(=O)N21 (mixture of isomers) [ID No. 76, (3S)-7-[3-Chloro-2-fluoro-6-(tetrazol-1-yl)phenyl]-5-oxo-N-[4-(5-oxo-2H-1,2,4-oxadiazol-3-yl)phenyl]-2,3,8,8a-tetrahydro-1H-indolizine-3-carboxamide]",7.65,9.52
"Cn1cnc(-c2ccc(NC(=O)[C@@H]3CCC4CC(c5c(-n6cnnn6)ccc(Cl)c5F)=CC(=O)N43)cc2)n1 (mixture of isomers) [ID No. 77, (3S)-7-[3-Chloro-2-fluoro-6-(tetrazol-1-yl)phenyl]-N-[4-(1-methyl-1,2,4-triazol-3-yl)phenyl]-5-oxo-2,3,8,8a-tetrahydro-1H-indolizine-3-carboxamide]",7.20,8.10
"CC1C[C@@H](C(=O)Nc2ccc3nn(C)cc3c2)N2C(=O)C=C(c3c(-n4cnnn4)ccc(Cl)c3F)CC12 (mixture of isomers) [ID No. 83, (3S)-7-[3-Chloro-2-fluoro-6-(tetrazol-1-yl)phenyl]-1-methyl-N-(2-methyl-2H-indazol-5-yl)-5-oxo-2,3,8,8a-tetrahydro-1H-indolizine-3-carboxamide]",7.57,7.75
"CC1C[C@@H](C(=O)Nc2ccc3n[nH]cc3c2)N2C(=O)C=C(c3c(-n4cnnn4)ccc(Cl)c3F)CC12 (mixture of isomers) [ID No. 84, (3S)-7-[3-Chloro-2-fluoro-6-(tetrazol-1-yl)phenyl]-N-(2H-indazol-5-yl)-1-methyl-5-oxo-2,3,8,8a-tetrahydro-1H-indolizine-3-carboxamide]",7.56,7.71
"COCCn1cc2cc(NC(=O)C3CCC4CC(c5c(-n6cnnn6)ccc(Cl)c5F)=CC(=O)N43)ccc2n1 (single isomer, unassigned) [ID No. 3, (3S*)-7-(3-chloro-2-fluoro-6-(1H-tetrazol-1-yl)phenyl)-N-(2-(2-methoxyethyl)-2H-indazol-5-yl)-5-oxo-1,2,3,5,8,8a-hexahydroindolizine-3-carboxamide]",7.45,8.22
"COCCNC(=O)c1ccc(NC(=O)[C@@H]2CC[C@@H]3CC(c4c(-n5cnnn5)ccc(Cl)c4F)=CC(=O)N32)cc1F (single isomer, unassigned) [ID No. 5, (3S,8aR*)-7-(3-chloro-2-fluoro-6-(1H-tetrazol-1-yl)phenyl)-N-(3-fluoro-4-((2-methoxyethyl)carbamoyl)phenyl)-5-oxo-1,2,3,5,8,8a-hexahydroindolizine-3-carboxamide]",6.89,7.81
"O=C(Nc1ccc2nn(C(F)F)cc2c1)[C@@H]1CC[C@@H]2CC(c3c(-n4cnnn4)ccc(Cl)c3F)=CC(=O)N21 (single isomer, unassigned) [ID No. 23]",7.51,8.08
"Cc1nc(-c2ccc(NC(=O)[C@@H]3CC[C@@H]4CC(c5c(-n6cnnn6)ccc(Cl)c5F)=CC(=O)N43)cc2)no1 (single isomer, unassigned) [ID No. 50]",7.24,7.50
"O=C(O)c1ccc(NC(=O)[C@@H]2CCC3CC(c4c(-n5cnnn5)ccc(Cl)c4F)=CC(=O)N32)cc1F (single isomer, unassigned) [ID No. 51, (3S,8aS*)-4-[[7-[3-Chloro-2-fluoro-6-(tetrazol-1-yl)phenyl]-5-oxo-2,3,8,8a-tetrahydro-1H-indolizine-3-carbonyl]amino]-2-fluoro-benzoic acid]",6.83,8.60
"O=C(O)c1ccc(NC(=O)[C@@H]2CC[C@@H]3CC(c4c(-n5cnnn5)ccc(Cl)c4F)=CC(=O)N32)cc1F (single isomer, unassigned) [ID No. 52, (3S,8R*)-4-[[7-[3-Chloro-2-fluoro-6-(tetrazol-1-yl)phenyl]-5-oxo-2,3,8,8a-tetrahydro-1H-indolizine-3-carbonyl]amino]-2-fluoro-benzoic acid]",7.15,9.05

# These reach a higher pIC50 (human plasma kallikrein). Values come first.
pIC50 (human plasma kallikrein),pIC50 (Factor XIa),Compound
7.95,8.74,"O=C(Nc1ccc(-c2n[nH]c(=O)o2)cc1)[C@@H]1CCC2CC(c3c(-n4cnnn4)ccc(Cl)c3F)=CC(=O)N21 (mixture of isomers) [ID No. 75, (3S)-7-[3-Chloro-2-fluoro-6-(tetrazol-1-yl)phenyl]-5-oxo-N-[4-(2-oxo-3H-1,3,4-oxadiazol-5-yl)phenyl]-2,3,8,8a-tetrahydro-1H-indolizine-3-carboxamide]"
8.10,8.10,"CC1C[C@@H](C(=O)Nc2ccc3ncccc3c2)N2C(=O)C=C(c3c(-n4cnnn4)ccc(Cl)c3F)CC12 (mixture of isomers) [ID No. 82, (3S)-7-[3-Chloro-2-fluoro-6-(tetrazol-1-yl)phenyl]-1-methyl-5-oxo-N-(6-quinolyl)-2,3,8,8a-tetrahydro-1H-indolizine-3-carboxamide]"
7.91,8.00,"CC1C[C@@H](C(=O)Nc2ccc3nccnc3c2)N2C(=O)C=C(c3c(-n4cnnn4)ccc(Cl)c3F)CC12 (mixture of isomers) [ID No. 85, (3S)-7-[3-Chloro-2-fluoro-6-(tetrazol-1-yl)phenyl]-1-methyl-5-oxo-N-quinoxalin-6-yl-2,3,8,8a-tetrahydro-1H-indolizine-3-carboxamide]"
8.01,8.30,"C[C@@H](O)c1cnc2cc(NC(=O)[C@@H]3CCC4CC(c5c(-n6cnnn6)ccc(Cl)c5F)=CC(=O)N43)ccc2n1 (relative stereo) [ID No. 1, (3S*)-7-(3-chloro-2-fluoro-6-(1H-tetrazol-1-yl)phenyl)-N-(2-((R*)-1-hydroxyethyl)quinoxalin-6-yl)-5-oxo-1,2,3,5,8,8a-hexahydroindolizine-3-carboxamide]"
7.95,8.19,"C[C@@H](O)c1cnc2cc(NC(=O)[C@@H]3CCC4CC(c5c(-n6cnnn6)ccc(Cl)c5F)=CC(=O)N43)ccc2n1 (single isomer, unassigned) [ID No. 2]"
7.71,8.38,"O=C(Nc1ccc2nn(C(F)F)cc2c1)[C@@H]1CCC2CC(c3c(-n4cnnn4)ccc(Cl)c3F)=CC(=O)N21 (single isomer, unassigned) [ID No. 22, (3S,8aS*)-7-(3-Chloro-2-fluoro-6-(1H-tetrazol-1-yl)phenyl)-N-(2-(difluoromethyl)-2H-indazol-5-yl)-5-oxo-1,2,3,5,8,8a-hexahydroindolizine-3-carboxamide]"
8.19,9.40,"O=C(Nc1ccc(-c2nc(=O)o[nH]2)c(F)c1)[C@@H]1CCC2CC(c3c(-n4cnnn4)ccc(Cl)c3F)=CC(=O)N21 (single isomer, unassigned) [ID No. 35, (3S,8aR*)-7-[3-Chloro-2-fluoro-6-(tetrazol-1-yl)phenyl]-N-[3-fluoro-4-(5-oxo-2H-1,2,4-oxadiazol-3-yl)phenyl]-5-oxo-2,3,8,8a-tetrahydro-1H-indolizine-3-carboxamide]"
8.06,9.40,"O=C(Nc1ccc(-c2nc(=O)o[nH]2)c(F)c1)[C@@H]1CC[C@H]2CC(c3c(-n4cnnn4)ccc(Cl)c3F)=CC(=O)N21 (single isomer, unassigned) [ID No. 36, (3S,8aS*)-7-(3-Chloro-2-fluoro-6-(1H-tetrazol-1-yl)phenyl)-N-(3-fluoro-4-(5-oxo-2,5-dihydro-1,2,4-oxadiazol-3-yl)phenyl)-5-oxo-1,2,3,5,8,8a-_hexahydroindolizine-3-carboxamide]"
